According to publication PMC8065850 (Microorganisms, 2021):
“Also recorded” adds a separate entry of the source.

Assays:
SARS-CoV 3CLpro = SARS-CoV 3CLpro (Severe acute respiratory syndrome coronavirus, UniProt P0C6X7); test: biochemical; assay type: biochemical
[1] = tested on: SARS-CoV-2 in infected Vero cells; settings: cited from earlier work
SARS-CoV-2 3CLpro = SARS-CoV-2 3CLpro (Severe acute respiratory syndrome coronavirus 2, UniProt P0DTD1); test: biochemical; assay type: biochemical

SMILES | IC50 (SARS-CoV 3CLpro) | inhibitory effect in library screening against SARS-CoV 3CLpro (in words) (SARS-CoV 3CLpro) | inhibitory effect in library screening against SARS-CoV-2 3CLpro (in words) (SARS-CoV-2 3CLpro) | other results
C[C@H](Cn1cnc2c(N)ncnc21)OCP(=O)(O)O [tenofovir, Tenofovir] | 14.2 µM | – | – | killing of SARS-CoV-2 in infected Vero cells [1]: kill SARS-CoV-2
CCN(CC)CCCC(C)Nc1ccnc2cc(Cl)ccc12 (centres unmarked) [No 6-5, Chloroquine] | – | little | little | –
C=C1[C@H](CO)[C@@H](O)C[C@@H]1n1cnc2c(=O)[nH]c(N)nc21 [No 4-3, Entecavir] | – | little | little | –
CC(C)(C)NC(=O)[C@@H]1CN(Cc2cccnc2)CCN1C[C@@H](O)C[C@@H](Cc1ccccc1)C(=O)N[C@H]1c2ccccc2C[C@H]1O [indinavir, Indinavir] | 31.5 µM | – | – | –
Nc1nc(NC2CC2)c2ncn([C@H]3C=C[C@@H](CO)C3)c2n1 [abacavir, Abacavir] | 24.7 µM | – | – | IC50 (SARS-CoV-2 3CLpro): 12.6 µM
CCC(CC)COC(=O)[C@H](C)N[P@](=O)(OC[C@H]1O[C@@](C#N)(c2ccc3c(N)ncnn23)[C@H](O)[C@@H]1O)Oc1ccccc1 [remdesivir, Remdesivir] | – | – | minor inhibitory activity | –
CCN(CCO)CCCC(C)Nc1ccnc2cc(Cl)ccc12 (centres unmarked) [No 6-6, Hydroxychloroquine] | – | little | little | –
Nc1nc(O)c2ncn(COC(CO)CO)c2n1 [No 1-3, Ganciclovir] | – | little | little | –
Nc1ccn([C@@H]2CS[C@H](CO)O2)c(=O)n1 [No 4-4, Lamivudine] | – | little | little | –
Cc1cccc(C)c1OCC(=O)N[C@@H](Cc1ccccc1)[C@@H](O)C[C@H](Cc1ccccc1)NC(=O)[C@H](C(C)C)N1CCCNC1=O [Lopinavir] | – | – | did not block the proteolytic activity | –
CC(C)c1nc(CN(C)C(=O)N[C@H](C(=O)N[C@@H](Cc2ccccc2)C[C@H](O)[C@H](Cc2ccccc2)NC(=O)OCc2cncs2)C(C)C)cs1 [ritonavir, Ritonavir] | – | – | did not block the proteolytic activity; also recorded: did not show clear inhibitory activity | –
CCCc1nn(C)c2c(=O)[nH]c(-c3cc(S(=O)(=O)N4CCN(C)CC4)ccc3OCC)nc12 [sildenafil, Sildenafil] | 12.5 µM | – | – | IC50 (SARS-CoV-2 3CLpro): 8.25 µM
CC(C)OC(=O)[C@H](C)N[P@](=O)(OC[C@H]1O[C@@H](n2ccc(=O)[nH]c2=O)[C@](C)(F)[C@@H]1O)Oc1ccccc1 [No 2-3, Sofosbuvir] | – | little | little | –
Nc1ccn(C[C@@H](CO)OCP(=O)(O)O)c(=O)n1 [cidofovir, Cidofovir] | > 47 µM | – | – | IC50 (SARS-CoV-2 3CLpro): > 36 µM
CN1CC(=O)N2[C@H](c3ccc4c(c3)OCO4)c3[nH]c4ccccc4c3C[C@@H]2C1=O [tadalafil, Tadalafil] | – | did not display meaningful inhibitory activity | did not display meaningful inhibitory activity | –
